Measured values from patent US9422241B2, “Demethylpenclomedine analogs and their use as anti-cancer agents” (priority 2005, dated 2016).
Values joined by “and” are separate entries in the source; they are usually repeats but may differ in a detail not shown here. Equal values may be shown once. “Also recorded” adds a separate entry of the source. Read-outs that look alike come from different tables or passages of the source.

Columns and labels:
[1] = tested on: patients with advanced solid tumors; details: one hour infusion for 5 consecutive days; dysmetria, ataxia, vertigo; cited from earlier work
mice [2] = assay: sub-acute oral mouse toxicity study; details: daily for five days, 800-2000 mg/kg
Procedure: Sub-acute oral mouse toxicity study was conducted at MPI Research, Mattawan, Mich., under GLP conditions in male/female mice.

U251 GBM = assay type: in vivo; details: for ILS (percentage increased length of survival in days vs. control): U251 GBM in cerebrum, IP qd 1-5, dose not given; for LTC (long-term cure, >30-35 days): U251 GBM, cured/animals
Procedure: (§1) U251 and D54 tumors, 10^6 cultured cells in 0.03 ml volume were injected via a 25-gauge stainless steel 0.25 inch needle into the right cerebrum with angling toward the center of the brain. […] Doses varied to include an ca LD10 as described above for the MX-1 tumor. BCNU was used clinically to treated advanced gliomas and will be used as a positive control at optimal doses of 17, 10 and 6 mg/kg on a qd 1-5 schedule, since it is also the clinical standard for brain tumors and is very active against this tumor model. DM-PEN at 60, 90 and 135 mg/kg on the same schedule was included as a comparative control. Antitumor activity was assessed on the basis of survival, with the medial day of death of the controls (10 mice) typically being ca. 30-35 days. The in vivo tumor inhibition results are recorded in Table 3.

mice [3] = assay: acute IV toxicity in the mouse (single dose); assay type: in vivo; details: for Observations (mortality): 5 M 5 F
Procedure: This example describes the toxicity of DM-CHOC-PEN to mice as administered via intravenous injections and oral gavage. For the intravenous study, the dose range-finding phase consisted of five treatment groups (one male mouse/group) that received the test article as a single dose at respective dose levels of 50 (dose volume of 5 mL/kg), 100 (dose volume of 10 mL/kg), 150 (dose volume of 15 mL/kg), 250 (dose volume of 25 mL/kg), and 500 mg/kg (intended total dose volume of 50 mL/kg). The 500 mg/kg dose was intended to be a split dose that was to be administered in equal fractions (25 mL/kg/dose) approximately four hours apart (mortality precluded administration of the second portion of the dose). An additional group (one male mouse) served as the control and received the vehicle, soybean oil, at a dose volume of 25 mL/kg using the same route of administration as the treated groups. On Day 4, following the three-day observation period, all surviving dose range-finding animals were euthanized and discarded.
The main study phase consisted of five treatment groups (five mice/sex/group) that received a single dose of the test article at respective dose levels of 50, 100, 200, 400, and 600 mg/kg. An additional group (five mice/sex) served as the control and received the vehicle, 0.3% Klucel+1.92% Tween® 80, using the same dosing regimen as the treated groups. All doses were at a constant volume of 25 mL/kg.
Observations for mortality, morbidity, and the availability of food and water were conducted twice daily for all animals. Observations for clinical signs were conducted daily during the study (approximately one and four hours post-dose on Day 1 and then once daily). Body weights were measured on all animals after receipt, prior to randomization and on Day 1. In addition, body weights were measured for all surviving main study phase animals on Days 7 and 14. Macroscopic evaluations were performed on each main study phase animal at necropsy (Day 15).

9L rat glioma = assay: in vitro cytotoxic activity against 9L rat glioma; assay type: cell-based
Description: (§2) In one embodiment, preferred therapeutic agents are identified herein by assessing their in vitro cytotoxic activity against cultured model cancer cell lines. […] Suitable cell lines against which the disclosed compounds may be assessed are well known to those of skill in the art and include, by way of example, KG breast CA, LM breast CA and 9L rat glioma. […] The KG breast cancer explants were obtained from surgical biopsies of chest wall metastases from breast cancer. The patient had failed on extensive standard and experimental chemo/hormone and radiation therapy protocols. Minced biopsy specimens were grown in RPMI plus 10% FBS with antibiotics at 37° C. and 5% CO2 atmosphere. DM-CHOC-PEN was tested at 0.5-5 μg/mL concentrations in medium and incubated for 24 hrs.

Beagle dogs = assay: acute IV toxicity in the dog; assay type: in vivo; details: for Observations (mortality): 2 M 2 F
Procedure: This example describes the acute toxicity of DM-CHOC-PEN in dogs. An acute study was performed in adult Beagle dogs, which consisted of: DM-CHOC-PEN administered once IV. Sixteen (16) adult beagle dogs (8 male and 8 female) divided into three groups received a single intravenous injection of DM-CHOC-PEN. The DM-CHOC-PEN was administered in 0.3% Klucel+1.92% Tween® 80, The results are recorded in Table 6.

D54 Glioblastoma = assay: antitumor evaluation vs. intracerebrally implanted D54 glioblastoma xenograft; assay type: in vivo, mice; details: D54 IC, 200 mg/kg IP q1d x 5d
Procedure: as §1

[4] = therapeutic studies (not specified further); assay type: in vivo
mice [5] = assay: acute IV toxicity in the mouse (single dose); assay type: in vivo; details: Mouse CD2F1, 12 F, 21 days
KG breast CA = assay: in vitro cytotoxic activity against KG breast cancer explants; assay type: cell-based, human
Description: as §2

LM breast CA = assay: in vitro cytotoxic activity against LM breast CA; assay type: cell-based
Description: as §2

MX-1 Breast Cancer = assay: antitumor evaluation vs. MX-1 breast cancer xenograft

COc1nc(C(Cl)(Cl)Cl)c(Cl)c(OC)c1Cl [PEN, 3,5-dichloro-4,6-dimethoxy-2-(trichloromethyl)-pyridine]
neurotoxicity in clinical trials [1]: dose-limiting neurotoxicity was observed

4-Demethyl cholesteryloxycarbonylpenclomedine [DM-CHOC-PEN]
mortality (mice [2]): Only one death occurred at 800 mg/kg
seizures (mice [2]): No seizures noted
clinical observations (mice [2]; similar in controls): some degree of lethargy and unkept appearance
neurotoxicity (U251 GBM; DM-CHOC-PEN treatment regimen in the animal studies): did not demonstrate neurotoxicity
long-term survivors (U251 GBM; Table 3, U251): 20%
ILS (percentage increased length of survival in days vs. control) (U251 GBM; Table 3): 29%
LTC (long-term cure, >30-35 days) (U251 GBM; Table 3): ⅕
increase in survival compared to DM-PEN (U251 GBM; U251, IP daily x 5 days): two-fold
tumor burden reduction (U251 GBM; U251, IP daily x 5 days): log107
% Increase in Life Span (% ILS) (U251 GBM; U251 IC, 135 mg/kg IP q1d x 5d): +29%
% Long Term Survivors (% LTS) (U251 GBM; U251 IC, 135 mg/kg IP q1d x 5d, LTS >90 days, 135 mg/kg): 20% and 20 (1/5 CR) %
weight loss (U251 GBM; U251 xenograft mice, IP daily x 5): no weight loss
macroscopic findings at necropsy (mice [3]; Day 15): No macroscopic findings
LD50 (mice [3]; Mouse, IV single dose): 390 mg/kg
time until the last death (mice [3]; Mouse, IV, 14-day study): 2 to 14 days
Comparable Human IV Dosage (mice [3]; estimated from mouse LD10): 39 mg/m^2
body weight effects (mice [3]; mice surviving the 14-day observation period vs controls): No definitively clear treatment-related body effects
intravenous LD10 (mice [3]; mice, combined sexes, single dose): 136 mg/kg
intravenous LD50 (mice [3]; mice, combined sexes, 95% confidence limits 298 to 502 mg/kg): 385 mg/kg
Observations (mortality) (mice [3]; single IV dose 50 mg/kg, 50 mg/kg): 1 of 10 and 0 M and 1 F died
Observations (mortality) (mice [3]; single IV dose 100 mg/kg, 100 mg/kg): No animals died; also recorded: No deaths
Observations (mortality) (mice [3]; single IV dose 200 mg/kg, 200 mg/kg): 1 of 10 and 0 M and 1 F died
Observations (mortality) (mice [3]; single IV dose 400 mg/kg, 400 mg/kg): 7 of 10 and 4 M and 3 F died
Observations (mortality) (mice [3]; single IV dose 600 mg/kg, 600 mg/kg): 8 of 10 and 5 M and 3 F died
clinical signs (mice [3]; single IV dose 50-600 mg/kg, both sexes, generally dose-dependent): decreased activity, rapid/difficult/slow/shallow breathing, limbs splayed, tremors and skin cold to touch
deaths in dose range-finding phase (mice [3]; single IV dose in soybean oil, at 0, 100, 250 and 500 mg/kg, one male mouse/group): immediate deaths
in vitro IC50 (9L rat glioma): 1.1±0.4 micrograms/mL
Acute IV (LD10) (Beagle dogs; Dog): >30 mg/kg
LD50 (Beagle dogs; Dog, Beagle, IV single dose, 10 days): >30 mg/kg
Observations (mortality) (Beagle dogs; IV once 10 mg/kg): No deaths
Observations (mortality) (Beagle dogs; IV once 20 mg/kg): No deaths
Observations (mortality) (Beagle dogs; IV once 30 mg/kg): No deaths
Comparable Human IV Dosage (Beagle dogs; estimated from dog LD10): >600 mg/m^2
effects directly related to the test article (Beagle dogs; single IV injection 10, 20 and 30 mg/kg): no effects that were directly related to the test article
% Increase in Life Span (% ILS) (D54 Glioblastoma): +3%
% Long Term Survivors (% LTS) (D54 Glioblastoma): 20 (1/5 CR) %
dosing range in which responses were seen [4]: 150 to 225 mg/kg
LD50 (mice [5]): 390 mg/kg
in vitro IC50 (KG breast CA; KG breast CA): 0.7±0.4 micrograms/mL
IC50 (KG breast CA; KG breast cancer explants, 0.5-5 μg/mL in medium, incubated 24 hrs): 1.1 ± 0.5 µg/mL
in vitro IC50 (LM breast CA): 1.0±0.5 micrograms/mL
% Increase in Life Span (% ILS) (MX-1 Breast Cancer; MX-1 IC, 25 mg/kg IP q1d x 5d): +6%
% Increase in Life Span (% ILS) (MX-1 Breast Cancer; MX-1 IC, 50 mg/kg IP q1d x 5d): +20%
% Long Term Survivors (% LTS) (MX-1 Breast Cancer; MX-1 IC, printed on the 25 mg/kg line (25 and 50 mg/kg tested), IP q1d x 5d): 17% and 17 (1/6 CR) %
weight loss (MX-1 Breast Cancer; MX-1 tumor mice, daily dosing for 5 days): no weight loss

O=NN(CCCl)C(=O)NCCCl [BCNU, reference compound]
% ILS (U251 GBM; U251, BCNU positive control): +92%

COc1[nH]c(C(Cl)(Cl)Cl)c(Cl)c(=O)c1Cl [DM-PEN, 4-demethylpenclomedine, reference compound]
ILS (percentage increased length of survival in days vs. control) (U251 GBM; Table 3): 13%
LTC (long-term cure, >30-35 days) (U251 GBM; Table 3): 0
complete responders (U251 GBM; Table 4 tumors, daily dosing for 5 days): did not produce any complete responders
% ILS (U251 GBM; U251 IC, 90 mg/kg IP q1d x 5d): 17%
% LTS (given as survivors/animals) (U251 GBM; U251 IC, 90 mg/kg IP q1d x 5d): 0/5
activity in vitro (KG breast CA; requires prior activation per the liver): not active in vitro
% ILS (MX-1 Breast Cancer; MX-1 IC, 60 mg/kg IP q1d x 5d): 12%
% LTS (given as survivors/animals) (MX-1 Breast Cancer; MX-1 IC, 60 mg/kg IP q1d x 5d): 0/5
